Results: patent publication US5792750A, “Materials and method for control of pests” (priority 1997, dated 1998)
No end group written: not given here.

Legend:
[1] = tested on: trypsin-like enzyme biosynthesis in the midgut; test: Inhibition of trypsin-like enzyme biosynthesis after injection of peptides into ligated abdomens of blood-fed female mosquitoes; assay type: in vivo, Aedes aegypti; conditions: for ability to inhibit trypsin-like enzyme biosynthesis: ligated abdomens of female A. aegypti, 24 hours after injection; for biological activity: against Aedes aegypti, compared with TMOF or among the analogs
[2] = Stability in solution of mosquito homogenate (including digestive enzymes); assay type: in vitro ADME; conditions: room temperature, two weeks
Description: The compounds of the subject invention are white powders that are highly soluble in water. They can be synthesized on a commercial peptide synthesizer. […] Thus, these peptides are particularly attractive for the control of mosquitoes and other pests. Another advantage of the penta- and octa-peptides of the subject invention is that they are more rapidly absorbed in the insect gut. […] Thus, the novel peptides display a more rapid action, a decreased chance for insect gut enzymes to proteolyze the peptide, and high activity. The peptides were not affected by 1% trifluoroacetic acid and were routinely purified using this acid on HPLC.

Substance: YDPAPPPPPP [TMOF, reference compound]
- ability to inhibit trypsin-like enzyme biosynthesis [1]: demonstrated an ability to inhibit trypsin-like enzyme biosynthesis

Substance: YDPAP [Peptide P1, H2 N--YDPAP--COOH]
- biological activity [1]: even greater activity than the octa-peptideP4
- ability to inhibit trypsin-like enzyme biosynthesis [1]: demonstrated an ability to inhibit trypsin-like enzyme biosynthesis
- activity after standing in mosquito homogenate [2]: without loss of activity

Substance: YDPAPPPP [Peptide P4, H2 N--YDPAP4 --COOH]
- biological activity [1]: retains biological activity
- ability to inhibit trypsin-like enzyme biosynthesis [1]: demonstrated an ability to inhibit trypsin-like enzyme biosynthesis
